Measured values as given in US9974771B2 (priority 2016, dated 2018).
Where two headings read alike, the source gives them in different places.

Experiments:
[1] = test system: PrP^Sc in persistently prion (strain 22L) infected ScN2a cells; format: cell-based, mouse
LC3-II [2] = format: cell-based, mouse
[3] = test system: PrP^Sc in Atg5-KO ScN2a cells (strain 22L); format: cell-based, mouse
LC3-II [4] = format: cell-based, mouse; remark: listed apart in the source
[5] = test system: PrP^Sc in persistently prion (strain 22L) infected ScCAD5 cells; format: cell-based, mouse; conditions: AR-12 1-5 μM, 72 hours, ScCAD5 22L; FIG. 3A
[6] = test system: PrP^Sc in ScMEFs infected with prion strains 22L, Me7 or RML; format: cell-based, mouse; conditions: AR-12 3 μM, 72 hours, ScMEF strains 22L, FIG. 4A

Compound | reduction of PrP^Sc (+PK) ([1]; AR-14 2 μM, 72 hours, wild-type ScN2a cells, FIG. 8C) | reduction of PrP^Sc (+PK) ([1]; AR-14 at a concentration of 2, 3 days (72 hours), ScN2a 22L, FIG. 5A) | concentration at which already effective in reducing PrP^Sc ([1]; AR-14 tested at 0.5, 0.75 and 1.0 μM, 72 hours, ScN2a 22L, FIG. 5C) | LC3-II induction, comparison of cell lines (LC3-II [2]) | LC3-II levels (LC3-II [2]) | reduction of PrP^Sc (+PK) [3] | XTT toxicity at concentrations used (ScN2a cells) | reduction of PrP^Sc (+PK) ([1]; AR-12 3 μM, 3 days (72 hours), ScN2a 22L, vs DMSO, FIG. 2A) | reduction of PrP^Sc (+PK) ([1]; AR-12 3 μM, 72 hours, wild-type ScN2a cells, FIG. 8B) | LC3-II induction (LC3-II [4]) | PrP^Sc levels (+PK) [5] | PrP^Sc (+PK) [6] | XTT toxicity at concentrations used (ScCAD5 cells) | XTT toxicity at concentrations used (ScMEF cells)
NCCCC[C@H](N)C(=O)Nc1ccc(-n2nc(C(F)(F)F)cc2-c2ccc3c(ccc4ccccc43)c2)cc1 [AR-14] | 100% | 100% | 0.75 µM | lowest induction was found in CAD5 cells | time dependent and pronounced increase in LC3-II levels | about 50% | non-toxic concentrations | – | – | – | – | – | – | –
bafilomycin A1 [BA1, reference compound] | – | – | – | – | highest expression level of LC3-II | – | – | – | – | – | – | – | – | –
NCC(=O)Nc1ccc(-n2nc(C(F)(F)F)cc2-c2ccc3c(ccc4ccccc43)c2)cc1 [AR-12, 2-amino-N-(4-(5-(phenanthren-2-yl)-3-(trifluoromethyl)-1H-pyrazol-1-yl)phenyl)acetamide] | – | – | – | lowest induction was found in CAD5 cells | time dependent and pronounced increase in LC3-II levels | about 50% | non-toxic concentrations | 100% | ≥ 90% | about 2 fold | reduced, although slightly less than in ScN2a cells | strongly reduced | non-toxic concentrations | non-toxic concentrations
